Patent US11952328B2, “Selective ship inhibitors for treating disease” (THE RESEARCH FOUNDATION FOR THE STATE UNIVERSITY OF NEW YORK, priority 2018, dated 2024)

Tested on: NK cells
Test: NK cell IFNγ production by intracellular flow cytometry after two-day in vivo treatment
Design: species or system mice
Conditions: two-day 3AC vs vehicle
Protocol: FIGS. 3B-3E show activation of NK cells and T cells following exposure to the SHIP1 inhibitor 3AC in vivo. NK cells from two-day 3AC- or vehicle-treated mice were stimulated by incubation on uncoated plates, on plates coated with anti-NK1.1, anti-NKp46, or anti-NKG2D antibody, or on uncoated plates but in the presence of PMA and ionomycin. Representative flow plots (FIG. 3B) and box and whisker plots (FIG. 3C) show the frequency of NK cell production of IFNγ determined by intracellular flow cytometry. […] Anti-CD107a (LAMP-1) PE antibody was added for the final 5 hours of incubation. Degranulation of CD8+ T cells was determined by analysis of CD107a expression by flow cytometry. […]
SHIP1 is recruited directly to the T cell receptor (TcR), as well as to the scaffolding protein Dokl that limits T cell activation by the TcR (Reginald, K., Revisiting the timing of action of the PAG adaptor using quantitative proteomics analysis of primary T cells. J Immunol. (2015); 195: 5472-5481; Waterman, P. M. et al., The inositol 5phosphatase SHIP-1 and adaptors Dok-1 and 2 play central roles in CD4-mediated inhibitory signaling. Immunol Lett. (2012); 143: 122-130; Freeburn, R. W. et al., Evidence that SHIP-1 contributes to phosphatidylinositol 3,4,5-trisphosphate metabolism in T lymphocytes and can regulate novel phosphoinositide 3-kinase effectors. […]

CC(C)CCC[C@@H](C)[C@H]1CC[C@H]2[C@@H]3CCC4C[C@H](N)CC[C@]4(C)[C@H]3CC[C@]12C (stereo partly drawn) [Compound 3AC, 3-α-aminocholestane]
NK cell IFNγ production (stimulated with PMA and ionomycin): no difference | NK cell IFNγ production (stimulation with anti-NK1.1, anti-NKp46 or anti-NKG2D): significantly increased
